Source: US8022225B2, “Triazole derivative” (Taisho Pharmaceutical Co., Ltd, priority 2004, dated 2011)

Assays:
[1] = molecular target: T1, human Edg-1(S1P1) (Homo sapiens, UniProt P21453); experiment: Membrane system binding test: inhibition of [33P]-S1P binding to the membrane fraction of Edg-1(S1P1) gene transferred HEK-293 cells
T1 construct: expressed in transfected cells; host or cells: HEK-293
Procedure: The membrane fraction was obtained by treating the cells with a solubilizing buffer (1 mM Tris/HCl, pH 7.2) for 10 minutes on ice, centrifuging the system (1000×g, 5 min) to remove insoluble fractions, and then centrifuging the system (40000×g, 30 min, 4° C.). The resulting membrane fraction was dissolved in a binding buffer (20 mM Tris-HCl, pH 7.4, 100 mM NaCl, 15 mM NaF, 2 mM deoxypyridoxine, 4 mg/mL fatty acid-free BSA), and then [^33P]-S1P (produced by ARC, end concentration 0.1 nM) and a DMSO solution of the test compound (end concentration of the compound: 10^−5 M, end concentration of DMSO: 0.1%) were added, followed by stirring the mixture and subsequently treating it for 1 hour at 30° C. Using a harvester, the membrane fraction was harvested onto unifilter-96GF/C filter (produced by Perkin-Elmer). Then, the filter with the membrane fraction was washed 4 times with the binding buffer, and the filter was dried. To the filter, 25 μL Microscint 0 (produced by Perkin-Elmer) was added, and the assay system was measured for radioactivity by means of Top Count NXT (Packard). Based on the radioactivity, the amount (A) of binding of [^33P]-S1P to the membrane fraction upon addition of the compound was calculated.
The same procedure was performed in the absence of the test compound, and the amount (B) of binding of [^33P]-S1P was calculated. Moreover, the same procedure was performed in the absence of the test compound with the use of HEK-293 cells, to which the Edg-1(S1P1) gene had not been transferred, and the background amount (C) of binding of [^33P]-S1P was calculated.
The Edg-1(S1P1) binding inhibition rate of the compound, calculated from the following equation, is shown in […]

[2] = molecular target: T1, human Edg-1(S1P1); experiment: Cell system binding test: inhibition of [3H]-S1P binding to Edg-1(S1P1) gene transferred HEK-293 cells; settings: 10 μM compound, [3H]-S1P 10 nM, read-out: Cell system binding test % inhibition (10 μM)
Procedure: Cells (1×10^5 cells/well) obtained as described above were seeded in poly-L-lysine-coated 96-well plates (Corning Incorporated), and then incubated in a 5% carbon dioxide gas incubator for 12 hours at 37° C. with the use of an MEM medium (Invitrogen Corporation) containing 100 U/mL of penicillin, 100 μg/mL of streptomycin, a 1% MEM nonessential amino acid solution, and 10% FCS. […] After the cells were washed twice with the buffer, they were solubilized with 100 μL of Opti Phase Supermix (produced by Perkin-Elmer), and measured for radioactivity by means of Micro Beta (produced by Perkin-Elmer).
Inhibition rate(%)=[1−(A−C)/(B−C)]×100

[3] = 10 μM compound, [33P]-S1P 0.1 nM, membrane fraction of Edg-1(S1P1) gene transferred HEK-293 cells, read-out: Membrane system binding test % inhibition (10 μM)
[4] = test compound 10^-5 M, [33P]-S1P 0.1 nM, 1 hour at 30° C., HEK-293 membrane fraction, read-out: Edg-1(S1P1) binding inhibition rate (membrane system binding test)

T1 sequence (P21453 whole entry): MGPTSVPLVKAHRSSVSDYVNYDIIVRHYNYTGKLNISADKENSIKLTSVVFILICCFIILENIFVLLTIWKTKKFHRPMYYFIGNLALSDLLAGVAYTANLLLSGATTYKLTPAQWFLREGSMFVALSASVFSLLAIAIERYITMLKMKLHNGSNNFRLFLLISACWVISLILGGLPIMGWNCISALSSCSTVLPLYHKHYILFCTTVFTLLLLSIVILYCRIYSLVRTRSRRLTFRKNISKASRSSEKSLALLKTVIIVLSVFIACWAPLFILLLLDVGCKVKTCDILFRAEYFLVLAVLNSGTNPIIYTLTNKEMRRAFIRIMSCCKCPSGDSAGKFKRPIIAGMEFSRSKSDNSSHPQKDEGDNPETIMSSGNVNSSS

SMILES | inhibition at 10 µM [1, 3] [%] | inhibition at 10 µM [2] [%] | inhibition at 10 µM [1, 4] [%] | further results
CCCSc1nnc([C@@H](C)NS(=O)(=O)c2ccc(Cl)cc2)n1CC [Compound 2] | 101 | 88.5 |  | 
C=CCSc1nnc([C@@H](C)NS(=O)(=O)c2ccc(Cl)cc2)n1CC [Compound 3] | 89.1 | 86.1 |  | 
C#CCSc1nnc([C@@H](C)NS(=O)(=O)c2ccc(Cl)cc2)n1CC [Compound 4] | 101 | 86.8 |  | 
CCn1c(SCc2ccccc2)nnc1[C@@H](C)NS(=O)(=O)c1ccc(Cl)cc1 [Compound 5, N-{(1R)-1-[5-(benzylthio)-4-ethyl-4H-1,2,4-triazol-3-yl]ethyl}-4-chloro-benzenesulfonamide] | 81.2 | 97.2 |  | 
CCn1c(SCc2ccc(-c3ccccc3)cc2)nnc1[C@@H](C)NS(=O)(=O)c1ccc(Cl)cc1 [Compound 6] | 99 | 94.3 |  | 
CCn1c(SCc2cccc(C#N)c2)nnc1[C@@H](C)NS(=O)(=O)c1ccc(Cl)cc1 [Compound 7] | 74.6 | 88.5 |  | 
CCn1c(SC2CCCCC2)nnc1[C@@H](C)NS(=O)(=O)c1ccc(Cl)cc1 [Compound 8] | 85.6 | 83.9 |  | 
CCn1c(SC2CCCC2)nnc1[C@@H](C)NS(=O)(=O)c1ccc(Cl)cc1 [Compound 9] | 86.7 | 90.1 |  | 
CCn1c(SCC2CC2)nnc1[C@@H](C)NS(=O)(=O)c1ccc(Cl)cc1 [Compound 10] | 54.3 | 85.6 |  | 
CCn1c(SCc2ccc(F)cc2)nnc1[C@@H](C)NS(=O)(=O)c1ccc(Cl)cc1 [Compound 11] | 45.1 | 85.5 |  | 
CCn1c(SCC2(c3ccc(Cl)cc3)CC2)nnc1[C@@H](C)NS(=O)(=O)c1ccc(Cl)cc1 [Compound 12] | 85.9 | 87.8 |  | 
CCn1c(SCC2CCOC2)nnc1[C@@H](C)NS(=O)(=O)c1ccc(Cl)cc1 (some centres unmarked) [Compound 13] | 43.6 | 80.8 |  | 
C=CCCSc1nnc([C@@H](C)NS(=O)(=O)c2ccc(Cl)cc2)n1CC [Compound 14] | 69.6 | 87 |  | 
CCn1c(SCCCC(F)(F)F)nnc1[C@@H](C)NS(=O)(=O)c1ccc(Cl)cc1 [Compound 15] | 79.4 | 91 |  | 
CCn1c(SCCOC)nnc1[C@@H](C)NS(=O)(=O)c1ccc(Cl)cc1 [Compound 16] | 64.4 | 92.1 |  | 
CCC#CCSc1nnc([C@@H](C)NS(=O)(=O)c2ccc(Cl)cc2)n1CC [Compound 17] | 90.6 | 85.5 |  | 
CCn1c(SCCCC#Cc2ccccc2)nnc1[C@@H](C)NS(=O)(=O)c1ccc(Cl)cc1 [Compound 18] | 100 | 84.8 |  | 
CCCOc1nnc([C@H](C)NS(=O)(=O)c2ccc(Cl)cc2)n1CC [Compound 184] | 44.4 |  |  | 
CCn1c(OC)nnc1[C@@H](C)NS(=O)(=O)c1ccc(C)nc1 [Compound 281] | 75.5 |  |  | 
CCn1c(OC)nnc1[C@@H](Cc1ccccc1)NS(=O)(=O)c1ccc(Cl)c(Cl)c1 [Compound 507] |  |  | 96.7 | 
CCCOc1nnc([C@@H](Cc2ccc(OC)cc2)NS(=O)(=O)c2ccc(Cl)c(Cl)c2)n1CC [Compound 528] |  |  |  | Edg-1(S1P1) binding inhibition rate (membrane system binding test) ([1]; test compound 10^-5 M, [33P]-S1P 0.1 nM, 1 hour at 30° C., HEK-293 membrane fraction): 94.0%
CCCCCCCCCCCCC/C=C\C(O)C(N)COP(=O)(O)O (centres unmarked) [[^33P]-S1P, reference compound] |  |  |  | Kd ([1]; radioligand binding, membrane fraction, read-out: Kd of binding to human Edg-1(S1P1) gene transferred HEK-293 cell strain membrane fraction): 0.15 nM

More lines, main results first:

inhibition at 10 µM [1, 3] [%] | inhibition at 10 µM [2] [%] | inhibition at 10 µM [1, 4] [%] | SMILES | further results
 |  | 83.5 | CCn1c(SC)nnc1C(Cc1ccc(C(F)(F)F)cc1)NS(=O)(=O)c1ccc(Cl)c(Cl)c1 (centres unmarked) [Compound 518] | 
 |  | 82.5 | CCn1c(SC)nnc1C(Cc1ccc(C)cc1)NS(=O)(=O)c1ccc(Cl)c(Cl)c1 (centres unmarked) [Compound 523] | 
 |  | 75 | CCn1c(SC)nnc1C(Cc1ccc(Cl)c(Cl)c1)NS(=O)(=O)c1ccc(Cl)c(Cl)c1 (centres unmarked) [Compound 524] | 
 |  | 98 | CCCOc1nnc([C@@H](Cc2ccc(C)cc2)NS(=O)(=O)c2ccc(Cl)c(Cl)c2)n1CC [Compound 525] | 
 |  | 88.9 | CCCOc1nnc([C@@H](Cc2ccc(Cl)c(Cl)c2)NS(=O)(=O)c2ccc(Cl)c(Cl)c2)n1CC [Compound 526] | 
 |  | 89.7 | CCCOc1nnc([C@@H](Cc2ccc(OC)cc2)NS(=O)(=O)c2ccc(Cl)c(Cl)c2)n1CC [Compound 527] | 
 |  | 100 | CCCOc1nnc([C@@H](Cc2ccccc2)NS(=O)(=O)c2ccc(Cl)c(Cl)c2)n1CC [Compound 529] | 
 |  | 97.2 | CCn1c(OCC(F)(F)F)nnc1C(Cc1ccccc1)NS(=O)(=O)c1ccc(Cl)c(Cl)c1 (centres unmarked) [Compound 530] | 
 |  | 100 | CCn1c(OC2CCC2)nnc1[C@@H](Cc1ccccc1)NS(=O)(=O)c1ccc(Cl)c(Cl)c1 [Compound 531] | 
 |  | 53.8 | CCn1c([C@@H](C)NS(=O)(=O)c2ccc(Cl)c(Cl)c2)nnc1S(C)(=O)=O [Compound 532] | 
 |  | 98.9 | CCn1c(OC2CCCC2)nnc1[C@@H](Cc1ccccc1)NS(=O)(=O)c1ccc(Cl)c(Cl)c1 [Compound 533] | 
 |  | 98.3 | CCn1c(OC2CCCCC2)nnc1[C@@H](Cc1ccccc1)NS(=O)(=O)c1ccc(Cl)c(Cl)c1 [Compound 534] | 
 |  | 102 | CCn1c(OCCCOC)nnc1[C@@H](Cc1ccccc1)NS(=O)(=O)c1ccc(Cl)c(Cl)c1 [Compound 535] | 
 |  | 98.4 | CCOc1nnc([C@@H](Cc2ccccc2)NS(=O)(=O)c2ccc(Cl)c(Cl)c2)n1CC [Compound 536] | 
 |  | 101 | CCn1c(OC(C)C)nnc1[C@@H](Cc1ccccc1)NS(=O)(=O)c1ccc(Cl)c(Cl)c1 [Compound 537] | 
 |  | 103 | CCn1c(OCCCN2CCOCC2)nnc1[C@@H](Cc1ccccc1)NS(=O)(=O)c1ccc(Cl)c(Cl)c1 [Compound 538] | 
 |  | 101 | CCn1c(OCC2CC2)nnc1[C@@H](Cc1ccccc1)NS(=O)(=O)c1ccc(Cl)c(Cl)c1 [Compound 545] | 
 |  | 96.9 | CCn1c(OCc2ccccc2)nnc1[C@@H](Cc1ccccc1)NS(=O)(=O)c1ccc(Cl)c(Cl)c1 [Compound 546] | 
 |  | 85.4 | CCn1c(OC)nnc1[C@@H](Cc1ccc(-c2ccccc2)cc1)NS(=O)(=O)c1ccc(Cl)c(Cl)c1 [Compound 547] | 
 |  | 99.8 | CCn1c(OC)nnc1[C@@H](Cc1ccc(F)cc1)NS(=O)(=O)c1ccc(Cl)c(Cl)c1 [Compound 548] | 
 |  | 99.7 | CCn1c(OC)nnc1[C@@H](Cc1ccc(F)c(F)c1)NS(=O)(=O)c1ccc(Cl)c(Cl)c1 [Compound 549] | 
 |  | 98.6 | CCn1c(OC)nnc1[C@@H](Cc1ccccc1F)NS(=O)(=O)c1ccc(Cl)c(Cl)c1 [Compound 550] | 
 |  | 101 | CCn1c(OC)nnc1[C@@H](Cc1cccc(F)c1)NS(=O)(=O)c1ccc(Cl)c(Cl)c1 [Compound 551] | 
 |  | 97.3 | CCn1c(OC)nnc1[C@@H](Cc1cc(F)cc(F)c1)NS(=O)(=O)c1ccc(Cl)c(Cl)c1 [Compound 552] | 
 |  | 94.2 | COc1nnc([C@@H](Cc2ccccc2)NS(=O)(=O)c2ccc(Cl)c(Cl)c2)n1C [Compound 553] | 
 |  | 88 | CCCn1c(OC)nnc1[C@@H](Cc1ccccc1)NS(=O)(=O)c1ccc(Cl)c(Cl)c1 [Compound 554] | 
